# Results reported in patent EP0946179B1 (ELI LILLY AND COMPANY, priority 1996, dated 1997).
# What was measured:
# [1] = double-blind multicenter clinical trial, olanzapine versus placebo; format: in vivo; settings: patients randomized to olanzapine or placebo
# Source text: A double-blind multicenter clinical trial was designed to assess the safety and efficacy of olanzapine. Patients were randomized to olanzapine or placebo.
# 5-HT1C receptor = target: T1, 5-HT1C receptor (Homo sapiens, UniProt P28335); experiment: pharmacological studies, 5-HT1C receptor activity
# T1 sequence (P28335 33-458): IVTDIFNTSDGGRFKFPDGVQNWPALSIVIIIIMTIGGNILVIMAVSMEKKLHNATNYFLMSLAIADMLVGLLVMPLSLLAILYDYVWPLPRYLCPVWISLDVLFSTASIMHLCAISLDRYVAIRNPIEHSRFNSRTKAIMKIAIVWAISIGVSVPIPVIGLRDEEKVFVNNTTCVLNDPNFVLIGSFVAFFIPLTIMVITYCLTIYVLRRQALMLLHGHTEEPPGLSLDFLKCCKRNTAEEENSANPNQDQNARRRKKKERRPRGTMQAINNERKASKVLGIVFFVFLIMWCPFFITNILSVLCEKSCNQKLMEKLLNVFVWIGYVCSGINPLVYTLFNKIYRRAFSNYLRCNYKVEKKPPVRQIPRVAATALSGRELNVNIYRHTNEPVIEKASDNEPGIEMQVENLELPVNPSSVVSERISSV
# [2] = test system: muscarinic cholinergic receptor; experiment: pharmacological studies, muscarinic receptor activity
smiles,measurement,setting,value
"Cc1cc2c(s1)Nc1ccccc1N=C2N1CCN(C)CC1 [olanzapine, 2-methyl-4-(4-methyl-1-piperazinyl)-10H-thieno[2,3-b][1,5] benzodiazepine]",usefulness for the treatment of autism,[1],can be useful for the treatment of autism
same,usefulness for the treatment of mental retardation,[1],can be useful for the treatment of mental retardation
same,activity at the 5-HT1C receptor,5-HT1C receptor,active
same,muscarinic cholinergic receptor activity,[2],has muscarinic cholinergic receptor activity
